Data on two compounds can be found in patent publication US7361660B2, “Chemical compounds” (AstraZeneca AB, priority 2001, dated 2008).

The subject of the experiment is peripheral blood mononuclear cell (PBMC). Kind of experiment: Inhibition of PMA/ionomycin-stimulated peripheral blood mononuclear cell proliferation. The format is cell-based. To be noted: human PBMC from a single donor, PMA 0.5 ng/ml and ionomycin 500 ng/ml, 72 hours, 3H-Thymidine incorporation; read-out: IA50 (the source's name). How it is done:
The ability of compounds which can inhibit PMA/ionomycin-stimulated peripheral blood mononuclear cell proliferation can be assessed, for example using the procedure set out below:
Inhibition of PMA/Ionomycin-Stimulated Peripheral Blood Mononuclear Cell Proliferation
The assay for Phorbol 12-myristate 13-Acetate (PMA)/ionomycin-stimulated peripheral blood mononuclear cell (PBMC) proliferation was performed in 96-well flat bottomed microtitre plates. Compounds were prepared as 10 mM stock solutions in dimethyl sulfoxide. A 50-fold dilution of this was prepared in RPMI culture medium and serial diutions were prepared from this solution. 10 μl of the 50-fold diluted stock, or dilutions of it, were added to the well to give concentrations in the assay starting at […] and going down. Into each well was placed 1×10^5 PBMC, prepared from human peripheral blood from a single donor, in RPMI1640 medium supplemented with 10% human serum, 2 mM glutamine and penicillin/streptomycin. PMA (0.5 ng/ml final concentration) and ionomycin (500 ng/ml final concentration) were added to these cells in supplemented RPMI1640 medium (as above) so that the final volume of the assay was 0.2 ml. […] The level of radioactivity incorporated by the cells was then determined and this is a measure of proliferation.

In the case of `CCCn1c(=O)n(C)c(=O)c2c(C(=O)N(C)OC)c(Cn3c(C)nc(Cl)c3Cl)sc21` [Example 7, 6-[4,5-Dichloro-2-methyl-1H-imidazol-1-ylmethyl]-1,2,3,4-tetrahydro-N-methoxy-N,3-dimethyl-2,4-dioxo-1-propyl-thieno[2,3-d]pyrimidine-5-carboxamide], the IC50 was determined as 34.6 nM. For `CON(C)C(=O)c1c(Cc2ccnc3ccccc23)sc2c1c(=O)n(C)c(=O)n2CC(C)C` [Example 2, 1,2,3,4-Tetrahydro-N-methoxy-N,3-dimethyl-1-(2-methylpropyl)-2,4-dioxo-6-(4-quinolinylmethyl)thieno[2,3-d]pyrimidine-5-carboxamide] the value was 5.88 nM.
